# From patent US10538555B2, “Macrocyclic inhibitors of the PD-1/PD-L1 and CD80(B7-1)/PD-L1 protein/protein interactions” (BRISTOL-MYERS SQUIBB COMPANY, priority 2014, dated 2020)
# Where a SMILES comes first, the peptide text is derived from it. Bridges are numbered along the chain shown (N, C = ends). [ ]: non-standard residue; d: D form. Phe(3,4,5-F3) = N[C@@H](Cc1cc(F)c(F)c(F)c1)C(=O)O; NMePhe(4-Me) = CN[C@@H](Cc1ccc(C)cc1)C(=O)O; NMePhe(4-F) = CN[C@@H](Cc1ccc(F)cc1)C(=O)O; Phe(4-F) = N[C@@H](Cc1ccc(F)cc1)C(=O)O; NMeF = CN[C@@H](Cc1ccccc1)C(=O)O; dHyp = O=C(O)[C@H]1C[C@H](O)CN1; NMeNle = CCCC[C@H](NC)C(=O)O; Orn = NCCC[C@H](N)C(=O)O; Dab = NCC[C@H](N)C(=O)O
# Biological target: T1, Human PD-L1/PD-1 (Homo sapiens, UniProt Q9NZQ7)
# T1 construct: TVMV protease cleavage site (C); made in house; host or cells: HEK293T cells
# Experiment: HTRF Human PD-L1/PD-1 binding assay (PD-1-Ig/PD-L1-His)
# Conditions: PD-L1-His 10 nM, PD-1-Ig 20 nM; class symbol; read-out: HTRF Human PD-L1/PD-1 Binding Assay IC50 Range
# Summary of the method: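 Competition of macrocyclic peptides for PD-1/PD-L1 binding measured by HTRF in dPBS containing 0.1% BSA and 0.05% Tween-20. Compound and PD-L1-His (10 nM final) incubated 15 min before PD-1-Ig (20 nM final) and a further 15 min.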
# T1 sequence (Q9NZQ7 with tags, fused parts or gaps): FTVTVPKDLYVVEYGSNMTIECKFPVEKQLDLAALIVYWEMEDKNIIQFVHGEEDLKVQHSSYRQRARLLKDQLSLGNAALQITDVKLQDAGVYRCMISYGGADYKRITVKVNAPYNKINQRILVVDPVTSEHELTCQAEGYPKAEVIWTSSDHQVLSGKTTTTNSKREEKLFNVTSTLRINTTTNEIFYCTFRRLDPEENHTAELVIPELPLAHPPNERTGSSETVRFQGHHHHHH
row,SMILES,IC50 [nM]
1,CCCC[C@H]1C(=O)N2CCC[C@@H]2C(=O)N[C@@H](CC(=O)O)C(=O)N[C@@H](C(C)C)C(=O)N(C)[C@@H](Cc2ccccc2)C(=O)N[C@@H](CCCN)C(=O)N2CCC[C@@H]2C(=O)N[C@@H](Cc2c[nH]c3ccccc23)C(=O)N[C@@H](Cc2ccc(O)cc2)C(=O)N[C@@H](CC(C)C)C(=O)N[C@H](C(=O)NCC(N)=O)CSCC(=O)N[C@@H](Cc2ccc(F)cc2)C(=O)N(C)[C@@H](Cc2ccccc2)C(=O)N1C [Example 10102] ({CH2CO}-[Phe(4-F)][NMeF][NMeNle][dP]DV[NMeF][Orn][dP]WYLCG-NH2; thioether N-13),1 to 9.9
2,CCCC[C@H]1C(=O)N2CCC[C@@H]2C(=O)N[C@@H](CC(=O)O)C(=O)N[C@@H](C(C)C)C(=O)N(C)[C@@H](Cc2ccccc2)C(=O)N[C@@H](CCCN)C(=O)N2CCC[C@@H]2C(=O)N[C@@H](Cc2c[nH]c3ccccc23)C(=O)N[C@@H](Cc2ccc(O)cc2)C(=O)N[C@@H](CC(C)C)C(=O)N[C@H](C(=O)NCC(N)=O)CSCC(=O)N[C@@H](Cc2ccccc2)C(=O)N(C)[C@@H](Cc2ccccc2)C(=O)N1C [Example 10103] ({CH2CO}-F[NMeF][NMeNle][dP]DV[NMeF][Orn][dP]WYLCG-NH2; thioether N-13),1 to 9.9
3,"CCCC[C@H]1C(=O)N2CCC[C@@H]2C(=O)N[C@@H](CC(=O)O)C(=O)N[C@@H](C(C)C)C(=O)N(C)[C@@H](Cc2ccccc2)C(=O)N[C@@H](CCCN)C(=O)N2CCC[C@@H]2C(=O)N[C@@H](Cc2c[nH]c3ccccc23)C(=O)N[C@@H](Cc2ccc(O)cc2)C(=O)N[C@@H](CC(C)C)C(=O)N[C@H](C(=O)NCC(N)=O)CSCC(=O)N[C@@H](Cc2cc(F)c(F)c(F)c2)C(=O)N(C)[C@@H](Cc2ccccc2)C(=O)N1C [Example 10104] ({CH2CO}-[Phe(3,4,5-F3)][NMeF][NMeNle][dP]DV[NMeF][Orn][dP]WYLCG-NH2; thioether N-13)",1 to 9.9
4,CCCC[C@H]1C(=O)N2CCC[C@@H]2C(=O)N[C@@H](CC(=O)O)C(=O)N[C@@H](C(C)C)C(=O)N(C)[C@@H](Cc2ccccc2)C(=O)N[C@@H](CCN)C(=O)N2CCC[C@@H]2C(=O)N[C@@H](Cc2c[nH]c3ccccc23)C(=O)N[C@@H](Cc2ccc(O)cc2)C(=O)N[C@@H](CC(C)C)C(=O)N[C@H](C(=O)NCC(N)=O)CSCC(=O)N[C@@H](Cc2ccc(F)cc2)C(=O)N(C)[C@@H](Cc2ccccc2)C(=O)N1C [Example 10105] ({CH2CO}-[Phe(4-F)][NMeF][NMeNle][dP]DV[NMeF][Dab][dP]WYLCG-NH2; thioether N-13),1 to 9.9
5,CCCC[C@H]1C(=O)N2CCC[C@@H]2C(=O)N[C@@H](CC(=O)O)C(=O)N[C@@H](C(C)C)C(=O)N(C)[C@@H](Cc2ccccc2)C(=O)N[C@@H](CC(=O)O)C(=O)N2CCC[C@@H]2C(=O)N[C@@H](Cc2c[nH]c3ccccc23)C(=O)N[C@@H](Cc2ccc(O)cc2)C(=O)N[C@@H](CC(C)C)C(=O)N[C@H](C(=O)NCC(N)=O)CSCC(=O)N[C@@H](Cc2ccc(F)cc2)C(=O)N(C)[C@@H](Cc2ccccc2)C(=O)N1C [Example 10106] ({CH2CO}-[Phe(4-F)][NMeF][NMeNle][dP]DV[NMeF]D[dP]WYLCG-NH2; thioether N-13),1 to 9.9
6,CCCC[C@H]1C(=O)N2CCC[C@@H]2C(=O)N[C@@H](CC(=O)O)C(=O)N[C@@H](C(C)C)C(=O)N(C)[C@@H](Cc2ccccc2)C(=O)N[C@@H](CCC(=O)O)C(=O)N2CCC[C@@H]2C(=O)N[C@@H](Cc2c[nH]c3ccccc23)C(=O)N[C@@H](Cc2ccc(O)cc2)C(=O)N[C@@H](CC(C)C)C(=O)N[C@H](C(=O)NCC(N)=O)CSCC(=O)N[C@@H](Cc2ccc(F)cc2)C(=O)N(C)[C@@H](Cc2ccccc2)C(=O)N1C [Example 10107] ({CH2CO}-[Phe(4-F)][NMeF][NMeNle][dP]DV[NMeF]E[dP]WYLCG-NH2; thioether N-13),1 to 9.9
7,CCCC[C@H]1C(=O)N2CCC[C@@H]2C(=O)N[C@@H](CC(=O)O)C(=O)N[C@@H](C(C)C)C(=O)N(C)[C@@H](Cc2ccc(F)cc2)C(=O)N[C@@H](CCCN)C(=O)N2CCC[C@@H]2C(=O)N[C@@H](Cc2c[nH]c3ccccc23)C(=O)N[C@@H](Cc2ccc(O)cc2)C(=O)N[C@@H](CC(C)C)C(=O)N[C@H](C(=O)NCC(N)=O)CSCC(=O)N[C@@H](Cc2ccc(F)cc2)C(=O)N(C)[C@@H](Cc2ccccc2)C(=O)N1C [Example 10108] ({CH2CO}-[Phe(4-F)][NMeF][NMeNle][dP]DV[NMePhe(4-F)][Orn][dP]WYLCG-NH2; thioether N-13),1 to 9.9
8,CCCC[C@H]1C(=O)N2CCC[C@@H]2C(=O)N[C@@H](CC(=O)O)C(=O)N[C@@H](C(C)C)C(=O)N(C)[C@@H](Cc2ccc(F)cc2)C(=O)N[C@@H](CCN)C(=O)N2CCC[C@@H]2C(=O)N[C@@H](Cc2c[nH]c3ccccc23)C(=O)N[C@@H](Cc2ccc(O)cc2)C(=O)N[C@@H](CC(C)C)C(=O)N[C@H](C(=O)NCC(N)=O)CSCC(=O)N[C@@H](Cc2ccc(F)cc2)C(=O)N(C)[C@@H](Cc2ccccc2)C(=O)N1C [Example 10109] ({CH2CO}-[Phe(4-F)][NMeF][NMeNle][dP]DV[NMePhe(4-F)][Dab][dP]WYLCG-NH2; thioether N-13),10 to 99.9
9,CCCC[C@H]1C(=O)N2CCC[C@@H]2C(=O)N[C@@H](CC(=O)O)C(=O)N[C@@H](C(C)C)C(=O)N(C)[C@@H](Cc2ccc(F)cc2)C(=O)N[C@@H](CC(=O)O)C(=O)N2CCC[C@@H]2C(=O)N[C@@H](Cc2c[nH]c3ccccc23)C(=O)N[C@@H](Cc2ccc(O)cc2)C(=O)N[C@@H](CC(C)C)C(=O)N[C@H](C(=O)NCC(N)=O)CSCC(=O)N[C@@H](Cc2ccc(F)cc2)C(=O)N(C)[C@@H](Cc2ccccc2)C(=O)N1C [Example 10110] ({CH2CO}-[Phe(4-F)][NMeF][NMeNle][dP]DV[NMePhe(4-F)]D[dP]WYLCG-NH2; thioether N-13),1 to 9.9
10,CCCC[C@H]1C(=O)N2CCC[C@@H]2C(=O)N[C@@H](CC(=O)O)C(=O)N[C@@H](C(C)C)C(=O)N(C)[C@@H](Cc2ccc(F)cc2)C(=O)N[C@@H](CCC(=O)O)C(=O)N2CCC[C@@H]2C(=O)N[C@@H](Cc2c[nH]c3ccccc23)C(=O)N[C@@H](Cc2ccc(O)cc2)C(=O)N[C@@H](CC(C)C)C(=O)N[C@H](C(=O)NCC(N)=O)CSCC(=O)N[C@@H](Cc2ccc(F)cc2)C(=O)N(C)[C@@H](Cc2ccccc2)C(=O)N1C [Example 10111] ({CH2CO}-[Phe(4-F)][NMeF][NMeNle][dP]DV[NMePhe(4-F)]E[dP]WYLCG-NH2; thioether N-13),1 to 9.9
11,CCCC[C@H]1C(=O)N2CCC[C@@H]2C(=O)N[C@@H](CC(=O)O)C(=O)N[C@@H](C(C)C)C(=O)N(C)[C@@H](Cc2ccc(C)cc2)C(=O)N[C@@H](CCCN)C(=O)N2CCC[C@@H]2C(=O)N[C@@H](Cc2c[nH]c3ccccc23)C(=O)N[C@@H](Cc2ccc(O)cc2)C(=O)N[C@@H](CC(C)C)C(=O)N[C@H](C(=O)NCC(N)=O)CSCC(=O)N[C@@H](Cc2ccc(F)cc2)C(=O)N(C)[C@@H](Cc2ccccc2)C(=O)N1C [Example 10112] ({CH2CO}-[Phe(4-F)][NMeF][NMeNle][dP]DV[NMePhe(4-Me)][Orn][dP]WYLCG-NH2; thioether N-13),100 to 990
12,CCCC[C@H]1C(=O)N2CCC[C@@H]2C(=O)N[C@@H](CC(=O)O)C(=O)N[C@@H](C(C)C)C(=O)N(C)[C@@H](Cc2ccc(C)cc2)C(=O)N[C@@H](CCN)C(=O)N2CCC[C@@H]2C(=O)N[C@@H](Cc2c[nH]c3ccccc23)C(=O)N[C@@H](Cc2ccc(O)cc2)C(=O)N[C@@H](CC(C)C)C(=O)N[C@H](C(=O)NCC(N)=O)CSCC(=O)N[C@@H](Cc2ccc(F)cc2)C(=O)N(C)[C@@H](Cc2ccccc2)C(=O)N1C [Example 10113] ({CH2CO}-[Phe(4-F)][NMeF][NMeNle][dP]DV[NMePhe(4-Me)][Dab][dP]WYLCG-NH2; thioether N-13),100 to 990
13,CCCC[C@H]1C(=O)N2CCC[C@@H]2C(=O)N[C@@H](CC(=O)O)C(=O)N[C@@H](C(C)C)C(=O)N(C)[C@@H](Cc2ccc(C)cc2)C(=O)N[C@@H](CC(=O)O)C(=O)N2CCC[C@@H]2C(=O)N[C@@H](Cc2c[nH]c3ccccc23)C(=O)N[C@@H](Cc2ccc(O)cc2)C(=O)N[C@@H](CC(C)C)C(=O)N[C@H](C(=O)NCC(N)=O)CSCC(=O)N[C@@H](Cc2ccc(F)cc2)C(=O)N(C)[C@@H](Cc2ccccc2)C(=O)N1C [Example 10114] ({CH2CO}-[Phe(4-F)][NMeF][NMeNle][dP]DV[NMePhe(4-Me)]D[dP]WYLCG-NH2; thioether N-13),100 to 990
14,CCCC[C@H]1C(=O)N2CCC[C@@H]2C(=O)N[C@@H](CC(=O)O)C(=O)N[C@@H](C(C)C)C(=O)N(C)[C@@H](Cc2ccc(C)cc2)C(=O)N[C@@H](CCC(=O)O)C(=O)N2CCC[C@@H]2C(=O)N[C@@H](Cc2c[nH]c3ccccc23)C(=O)N[C@@H](Cc2ccc(O)cc2)C(=O)N[C@@H](CC(C)C)C(=O)N[C@H](C(=O)NCC(N)=O)CSCC(=O)N[C@@H](Cc2ccc(F)cc2)C(=O)N(C)[C@@H](Cc2ccccc2)C(=O)N1C [Example 10115] ({CH2CO}-[Phe(4-F)][NMeF][NMeNle][dP]DV[NMePhe(4-Me)]E[dP]WYLCG-NH2; thioether N-13),100 to 990
15,"CCCC[C@H]1C(=O)N2C[C@@H](O)C[C@@H]2C(=O)N[C@@H](CC(=O)O)C(=O)N[C@@H](C(C)C)C(=O)N(C)[C@@H](Cc2ccc(F)cc2)C(=O)N[C@@H](CCC(=O)O)C(=O)N2CCC[C@@H]2C(=O)N[C@@H](Cc2c[nH]c3ccccc23)C(=O)N[C@@H](Cc2ccc(O)cc2)C(=O)N[C@@H](CC(C)C)C(=O)N[C@H](C(=O)NCC(N)=O)CSCC(=O)N[C@@H](Cc2cc(F)c(F)c(F)c2)C(=O)N(C)[C@@H](Cc2ccccc2)C(=O)N1C [Example 10116] ({CH2CO}-[Phe(3,4,5-F3)][NMeF][NMeNle][dHyp]DV[NMePhe(4-F)]E[dP]WYLCG-NH2; thioether N-13)",1 to 9.9
